Measured values: US20180326055A1, “NANOSTRUCTURE” (RIKEN, priority 2017, published 2018)

Tested on: HeLa cell
Assay: Delivery of PI by nanocapsule into cells (fluorescent microscope)
Type: cell-based
Conditions: incubated 1 hour
Description: PI-encapsulating nanocapsule was prepared in the same manner as described in Example 2. The PI-encapsulating nanocapsule dispersion was incubated with HeLa cell for 1 hour and washed with a buffer solution several times to remove the nanocapsule and free PI outside completely. The location of PI was evaluated by fluorescent microscope observation. PI alone incubated with HeLa cell for 1 hour was used as a negative control.

For `CC[N+](C)(CC)CCC[n+]1c(-c2ccccc2)c2cc(N)ccc2c2ccc(N)cc21.[I-].[I-]` [PI, propidium iodide], the “uptake of PI by cells” value was “not taken up by cells”.
